Usually pEC50 stands for −log10 of the EC50, conventionally taken in molar units.

The text below walks through data of US20250353891A1 (MEDIMMUNE LIMITED, priority 2022, published 2025).

In experiment [1] the target is human glucagon receptor (hGCGR) (Homo sapiens, UniProt P47871). In words: cAMP production (HTRF) in CHO cells expressing hGCGR. The format is cell-based. Further details: expressed in transfected cells. The following applies: Table 7, peptides modified at position 20; cAMP in CHO hGCGR cells; geometric mean; read-out: hGluc-R EC50. The method in brief: (§1)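 Potency values represent EC50 from 4-parameter logistic curves of HTRF % Delta F signal. Receptor-expressing CHO cells (hGCGR 2×10^5 cells/mL, hGLP-1R 1×10^5 cells/mL) were exposed for 30 min at room temperature before two-step cAMP detection.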

For experiment [2], the target named is human GLP-1 receptor (hGLP-1R) (Homo sapiens, UniProt P43220). In words: cAMP production (HTRF) in CHO cells expressing hGLP-1R. It counts as cell-based. Also on record: expressed in transfected cells. The following applies: for pEC50: Table 7, peptides modified at position 20, cAMP in CHO hGLP-1R cells, geometric mean, read-out: hGLP-1R EC50; for % Relative Potency Ratio: Table 7, % GLP-1R activity relative to GLP-1 / % GlucR activity relative to glucagon. In short, it runs like this:
as §1
For orientation: cAMP levels reflect the balance of adenylyl cyclase and phosphodiesterase activity.

pEC50: −log10 of the molar value. Starred links: 1 amine or outer side, 2 acyl side, 3 side chain; linkers in the order of their positions; H or OH if unused. Non-standard residues stand in square brackets, D forms with d. Residues, ends and D or L forms follow the SMILES beside them. Groups on a side chain read outwards from the residue. *: point of attachment. C20 diacid = O=C(O)CCCCCCCCCCCCCCCCCCC(=O)*; C18 diacid = O=C(O)CCCCCCCCCCCCCCCCC(=O)*; γGlu = O=C(O)[C@H](CCC(=O)[*:2])N[*:1]; αMeF = C[C@](N)(Cc1ccccc1)C(=O)O; AEEA = NCCOCCOCC(=O)O; Aib = CC(C)(N)C(=O)O

Sequence of human GLP-1 receptor (hGLP-1R) (P43220 24-463): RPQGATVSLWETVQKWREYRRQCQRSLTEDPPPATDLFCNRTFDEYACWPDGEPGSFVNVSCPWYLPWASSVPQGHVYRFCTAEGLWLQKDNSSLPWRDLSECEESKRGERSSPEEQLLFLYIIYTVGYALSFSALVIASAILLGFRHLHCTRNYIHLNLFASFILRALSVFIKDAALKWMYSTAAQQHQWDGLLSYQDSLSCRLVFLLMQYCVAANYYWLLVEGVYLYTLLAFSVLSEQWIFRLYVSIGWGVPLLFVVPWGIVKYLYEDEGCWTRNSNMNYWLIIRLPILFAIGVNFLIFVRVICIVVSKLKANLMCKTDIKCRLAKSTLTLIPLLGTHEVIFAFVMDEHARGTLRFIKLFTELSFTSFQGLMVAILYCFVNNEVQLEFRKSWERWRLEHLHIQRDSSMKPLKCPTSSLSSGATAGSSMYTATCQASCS
Sequence of human glucagon receptor (hGCGR) (P47871 26-477): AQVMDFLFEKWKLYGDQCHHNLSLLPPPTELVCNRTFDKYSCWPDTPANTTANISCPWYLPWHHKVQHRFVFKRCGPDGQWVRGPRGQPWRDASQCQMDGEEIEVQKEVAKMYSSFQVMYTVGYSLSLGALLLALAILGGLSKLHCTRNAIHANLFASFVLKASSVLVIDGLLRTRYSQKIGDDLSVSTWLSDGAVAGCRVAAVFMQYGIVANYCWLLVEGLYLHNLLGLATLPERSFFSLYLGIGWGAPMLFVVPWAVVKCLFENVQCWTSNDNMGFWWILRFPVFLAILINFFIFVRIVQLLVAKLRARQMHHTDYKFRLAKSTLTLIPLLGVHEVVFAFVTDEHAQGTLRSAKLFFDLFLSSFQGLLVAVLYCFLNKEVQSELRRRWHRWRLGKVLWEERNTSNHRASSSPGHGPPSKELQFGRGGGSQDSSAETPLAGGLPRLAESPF

Regarding `CC[C@H](C)[C@H](NC(=O)C(C)(C)NC(=O)[C@H](CCC(N)=O)NC(=O)[C@@H](NC(=O)[C@H](Cc1ccccc1)NC(=O)[C@H](CC(=O)O)NC(=O)[C@H](CCCCNC(=O)COCCOCCNC(=O)COCCOCCNC(=O)CC[C@H](NC(=O)CC[C@H](NC(=O)CCCCCCCCCCCCCCCCCCC(=O)O)C(=O)O)C(=O)O)NC(=O)[C@H](C)NC(=O)[C@H](C)NC(=O)[C@H](CCCNC(=N)N)NC(=O)[C@H](CO)NC(=O)[C@H](CC(=O)O)NC(=O)[C@H](CC(C)C)NC(=O)[C@](C)(Cc1ccccc1)NC(=O)[C@H](CCCCN)NC(=O)[C@H](CO)NC(=O)[C@@H](NC(=O)[C@H](CC(=O)O)NC(=O)[C@H](CO)NC(=O)[C@@H](NC(=O)[C@](C)(Cc1ccccc1)NC(=O)[C@H](CO)NC(=O)CNC(=O)[C@H](Cc1c[nH]cn1)NC(=O)C(C)(C)NC(=O)[C@@H](N)Cc1c[nH]cn1)[C@@H](C)O)C(C)C)C(C)C)C(=O)N[C@@H](C)C(=O)N[C@@H](CC(N)=O)C(=O)N[C@H](C(N)=O)[C@@H](C)O` [Peptide 221] (H-H[Aib]HGS[αMeF]TSDVSK[αMeF]LDSRAAK([AEEA-AEEA-γGlu-γGlu-C20 diacid])DFVQ[Aib]IANT-NH2; N-terminus assumed), the pEC50 in experiment [1] and in experiment [2] was 9.91 throughout. For the same compound, the “% Relative Potency Ratio” value in experiment [2] is reported as 2.0.
In the case of `CC[C@H](C)[C@H](NC(=O)[C@H](CO)NC(=O)[C@H](CCC(N)=O)NC(=O)[C@@H](NC(=O)[C@H](Cc1ccccc1)NC(=O)[C@H](CC(=O)O)NC(=O)[C@H](CCCCNC(=O)COCCOCCNC(=O)COCCOCCNC(=O)CC[C@H](NC(=O)CCCCCCCCCCCCCCCCC(=O)O)C(=O)O)NC(=O)[C@H](C)NC(=O)[C@H](C)NC(=O)[C@H](CCC(N)=O)NC(=O)[C@H](CO)NC(=O)[C@H](CC(=O)O)NC(=O)[C@H](CC(C)C)NC(=O)[C@](C)(Cc1ccccc1)NC(=O)[C@H](CCCCN)NC(=O)[C@H](CO)NC(=O)[C@@H](NC(=O)[C@H](CC(=O)O)NC(=O)[C@H](CO)NC(=O)[C@@H](NC(=O)[C@](C)(Cc1ccccc1)NC(=O)[C@H](CO)NC(=O)CNC(=O)[C@H](Cc1c[nH]cn1)NC(=O)C(C)(C)NC(=O)[C@@H](N)Cc1c[nH]cn1)[C@@H](C)O)C(C)C)C(C)C)C(=O)N[C@@H](C)C(=O)N[C@@H](CC(N)=O)C(=O)N[C@H](C(N)=O)[C@@H](C)O` [Peptide 222] (H-H[Aib]HGS[αMeF]TSDVSK[αMeF]LDSQAAK([AEEA-AEEA-γGlu-C18 diacid])DFVQSIANT-NH2), the results for the pEC50 in experiment [1] and in experiment [2] were 9.61 and 9.82, respectively. Besides, the “% Relative Potency Ratio” value in experiment [2] is 3.2.
The corresponding values for `CC[C@H](C)[C@H](NC(=O)C(C)(C)NC(=O)[C@H](CCC(N)=O)NC(=O)[C@@H](NC(=O)[C@](C)(Cc1ccccc1)NC(=O)[C@H](CC(=O)O)NC(=O)[C@H](CCCCNC(=O)COCCOCCNC(=O)COCCOCCNC(=O)CC[C@H](NC(=O)CCCCCCCCCCCCCCCCC(=O)O)C(=O)O)NC(=O)[C@H](C)NC(=O)[C@H](C)NC(=O)[C@H](CCCNC(=N)N)NC(=O)[C@H](CO)NC(=O)[C@H](CC(=O)O)NC(=O)[C@H](CC(C)C)NC(=O)[C@](C)(Cc1ccccc1)NC(=O)[C@H](CCCCN)NC(=O)[C@H](CO)NC(=O)[C@@H](NC(=O)[C@H](CC(=O)O)NC(=O)[C@H](CO)NC(=O)[C@@H](NC(=O)[C@](C)(Cc1ccccc1)NC(=O)[C@H](CO)NC(=O)CNC(=O)[C@H](Cc1c[nH]cn1)NC(=O)C(C)(C)NC(=O)[C@@H](N)Cc1c[nH]cn1)[C@@H](C)O)C(C)C)C(C)C)C(=O)N[C@@H](C)C(=O)N[C@@H](CC(N)=O)C(=O)N[C@H](C(=O)NCC(=O)NCC(N)=O)[C@@H](C)O` [Peptide 225] (H-H[Aib]HGS[αMeF]TSDVSK[αMeF]LDSRAAK([AEEA-AEEA-γGlu-C18 diacid])D[αMeF]VQ[Aib]IANTGG-NH2) are 9.84, 10.46 and 8.2.
The corresponding values for `CC[C@H](C)[C@H](NC(=O)C(C)(C)NC(=O)[C@H](CCC(=O)O)NC(=O)[C@@H](NC(=O)[C@](C)(Cc1ccccc1)NC(=O)[C@H](CC(=O)O)NC(=O)[C@H](CCCCNC(=O)COCCOCCNC(=O)COCCOCCNC(=O)CC[C@H](NC(=O)CCCCCCCCCCCCCCCCC(=O)O)C(=O)O)NC(=O)[C@H](C)NC(=O)[C@H](C)NC(=O)[C@H](CCCNC(=N)N)NC(=O)[C@H](CO)NC(=O)[C@H](CC(=O)O)NC(=O)[C@H](CC(C)C)NC(=O)[C@](C)(Cc1ccccc1)NC(=O)[C@H](CCCCN)NC(=O)[C@H](CO)NC(=O)[C@@H](NC(=O)[C@H](CC(=O)O)NC(=O)[C@H](CO)NC(=O)[C@@H](NC(=O)[C@](C)(Cc1ccccc1)NC(=O)[C@H](CO)NC(=O)CNC(=O)[C@H](Cc1c[nH]cn1)NC(=O)C(C)(C)NC(=O)[C@@H](N)Cc1c[nH]cn1)[C@@H](C)O)C(C)C)C(C)C)C(=O)N[C@@H](C)C(=O)N[C@@H](CC(N)=O)C(=O)N[C@H](C(N)=O)[C@@H](C)O` [Peptide 226] (H-H[Aib]HGS[αMeF]TSDVSK[αMeF]LDSRAAK([AEEA-AEEA-γGlu-C18 diacid])D[αMeF]VE[Aib]IANT-NH2) are 10.56, 10.08 and 0.7.
Consider `CC[C@H](C)[C@H](NC(=O)C(C)(C)NC(=O)[C@H](C)NC(=O)[C@@H](NC(=O)[C@](C)(Cc1ccccc1)NC(=O)[C@H](CC(=O)O)NC(=O)[C@H](CCCCNC(=O)COCCOCCNC(=O)COCCOCCNC(=O)CC[C@H](NC(=O)CCCCCCCCCCCCCCCCC(=O)O)C(=O)O)NC(=O)[C@H](C)NC(=O)[C@H](C)NC(=O)[C@H](CCCNC(=N)N)NC(=O)[C@H](CO)NC(=O)[C@H](CC(=O)O)NC(=O)[C@H](CC(C)C)NC(=O)[C@](C)(Cc1ccccc1)NC(=O)[C@H](CCCCN)NC(=O)[C@H](CO)NC(=O)[C@@H](NC(=O)[C@H](CC(=O)O)NC(=O)[C@H](CO)NC(=O)[C@@H](NC(=O)[C@](C)(Cc1ccccc1)NC(=O)[C@H](CO)NC(=O)CNC(=O)[C@H](Cc1c[nH]cn1)NC(=O)C(C)(C)NC(=O)[C@@H](N)Cc1c[nH]cn1)[C@@H](C)O)C(C)C)[C@@H](C)CC)C(=O)N[C@@H](C)C(=O)N[C@@H](CC(N)=O)C(=O)N[C@H](C(N)=O)[C@@H](C)O` [Peptide 227] (H-H[Aib]HGS[αMeF]TSDVSK[αMeF]LDSRAAK([AEEA-AEEA-γGlu-C18 diacid])D[αMeF]IA[Aib]IANT-NH2), for which the pEC50 in experiment [1] was 10.57. In experiment [2], the pEC50 is 10.15 and the “% Relative Potency Ratio” value was 0.8.
The corresponding values for `CC[C@H](C)[C@H](NC(=O)[C@H](Cc1c[nH]c2ccccc12)NC(=O)[C@H](CCC(N)=O)NC(=O)[C@@H](NC(=O)[C@](C)(Cc1ccccc1)NC(=O)[C@H](CC(=O)O)NC(=O)[C@H](CCCCNC(=O)COCCOCCNC(=O)COCCOCCNC(=O)CC[C@H](NC(=O)CC[C@H](NC(=O)CCCCCCCCCCCCCCCCCCC(=O)O)C(=O)O)C(=O)O)NC(=O)[C@H](C)NC(=O)[C@H](C)NC(=O)[C@H](CCCNC(=N)N)NC(=O)[C@H](CO)NC(=O)[C@H](CC(=O)O)NC(=O)[C@H](CC(C)C)NC(=O)[C@](C)(Cc1ccccc1)NC(=O)[C@H](CCCCN)NC(=O)[C@H](CO)NC(=O)[C@@H](NC(=O)[C@H](CC(=O)O)NC(=O)[C@H](CO)NC(=O)[C@@H](NC(=O)[C@](C)(Cc1ccccc1)NC(=O)[C@H](CO)NC(=O)CNC(=O)[C@H](Cc1c[nH]cn1)NC(=O)C(C)(C)NC(=O)[C@@H](N)Cc1c[nH]cn1)[C@@H](C)O)C(C)C)C(C)C)C(=O)N[C@@H](C)C(=O)N[C@@H](CC(N)=O)C(=O)N[C@H](C(N)=O)[C@@H](C)O` [Peptide 228] (H-H[Aib]HGS[αMeF]TSDVSK[αMeF]LDSRAAK([AEEA-AEEA-γGlu-γGlu-C20 diacid])D[αMeF]VQWIANT-NH2; N-terminus assumed) are 9.75, 9.70 and 1.7.
The corresponding values for `CC[C@H](C)[C@H](NC(=O)C(C)(C)NC(=O)[C@H](CCC(N)=O)NC(=O)[C@@H](NC(=O)[C@](C)(Cc1ccccc1)NC(=O)[C@H](CC(=O)O)NC(=O)[C@H](CCCCNC(=O)COCCOCCNC(=O)COCCOCCNC(=O)CC[C@H](NC(=O)CC[C@H](NC(=O)CCCCCCCCCCCCCCCCC(=O)O)C(=O)O)C(=O)O)NC(=O)[C@H](C)NC(=O)[C@H](C)NC(=O)[C@H](CCCNC(=N)N)NC(=O)[C@H](CO)NC(=O)[C@H](CC(=O)O)NC(=O)[C@H](CC(C)C)NC(=O)[C@](C)(Cc1ccccc1)NC(=O)[C@H](CCCCN)NC(=O)[C@H](CO)NC(=O)[C@@H](NC(=O)[C@H](CC(=O)O)NC(=O)[C@H](CO)NC(=O)[C@@H](NC(=O)[C@](C)(Cc1ccccc1)NC(=O)[C@H](CO)NC(=O)CNC(=O)[C@H](Cc1c[nH]cn1)NC(=O)C(C)(C)NC(=O)[C@@H](N)Cc1c[nH]cn1)[C@@H](C)O)C(C)C)C(C)C)C(=O)N[C@@H](C)C(=O)N[C@@H](CC(N)=O)C(=O)N[C@H](C(N)=O)[C@@H](C)O` [Peptide 231] (H-H[Aib]HGS[αMeF]TSDVSK[αMeF]LDSRAAK([AEEA-AEEA-γGlu-γGlu-C18 diacid])D[αMeF]VQ[Aib]IANT-NH2) are 10.23, 10.30 and 2.3.
